“And” between values parts separate entries of the source, which are not always exact repeats. Equal values may be shown once. Marks after values point to notes of the source that are not given here.
Test system: human epidermal melanocytes from dark human neonatal foreskin (HEMn-DP)
Assay: Quantification of total melanin in cultured melanocytes after 72 hours treatment
Assay type: cell-based
Details: for Mean mg melanin/100K cells: mean of triplicate; for mg melanin/100K cells: single replicate well, normalized to cell number
Method: Monolayer cultures were initiated from cryopreserved cultures of human epidermal melanocytes from dark human neonatal foreskin (HEMn-DP; C-202-5C; Cascade Biologics™), according to the manufacturer's instructions. Cells were cultured in Medium 254 (M-254-500, Cascade Biologics) supplemented with Human Melanocyte Growth Supplement (HMGS; S-0002-5, Cascade Biologics). Stocks of these cultures were generated and stored in Sythn-a-Freeze® cryopreservation media (R-005-50. Cascade Biologics) in liquid nitrogen at passage 2.
For use in assays, cells were thawed according to manufacturer's instructions, and subcultured to increase cell numbers as required. Cells were then plated into 6-well plates at ˜200,000 cells per well and incubated at 37° C., 5% CO2, and were used in assays at passage 4.
Once the melanocytes had adhered to the 6-well plate's (approx. 4-6 hr.), the medium was replaced with Medium 254 containing Human Melanocyte Growth Supplement PMA-free (HMGS-2; S-016-5 hereafter termed depleted media) for approximately 16 hours, or overnight, prior to treatment with the actives.
To develop the screening assay a variety of cell concentrations and incubation times were tested to obtain optimized measurable levels of melanin. During this process no materials were applied to the cells. In addition a standard melanin (M8631, Sigma Aldrich) stock solution was prepared in Solvable™ reagent (5NE9100, Perkin Elmer) to obtain a standard curve for evaluating levels of melanin extracted from cells using a spectrophotometer. Method development was performed to obtain the optimum time required to solubilize the melanin into solution without degradation and a reduction in color.
All stocks of active materials were diluted in DMSO, ethanol or media, before further dilution in depleted media. Treatments were applied to the cells in 6-well plates in triplicate for 72 hours after which time the cells were harvested. Appropriate solvent controls in triplicate were incorporated into each assay.
After 72 hours, media was removed form the cells and the cells were washed once in Dulbecco's PBS. The PBS wash was removed and discarded and care being taken to ensure that all excess PBS was removed as far as possible. 1 mL trypsin-EDTA solution (R-001-100, Cascade Biologicsm) was added and cells incubated at room temperature for ˜1 minute. Microscopic observation was carried out to ensure all cells had detached from the plate. The resulting cell suspension was transferred to a 1.5 mL Eppendorf tube, 50 μL was removed for a cell count (Beckman coulter counter), and the remaining suspension was centrifuged at 13,000 rpm for 5 minutes. The supernatant was discarded and the cell pellets were frozen at −20° C.
The cell pellets were thawed at room temperature, and each pellet was re-suspended in 75 μL Solvable™ reagent (6NE9100, Perkin Elmer). Each tube was vortexed briefly, before incubating in a water bath at 60° C. for 1 hour. After the 1 hour incubation, each tube was vortexed and then centrifuged at 13,000 rpm for 15 minutes. The supernatant containing the extracted melanin was transferred to a 96 well plate and the absorbance at 490 nm recorded on a Dynex MRX-II plate reader.
Each ingredient was tested in triplicate and compared against the relevant vehicle control. The total amount of melanin extracted was calculated from a melanin standard curve. All resultant data was normalized to the total number of the cells in the sample. Data was subjected to the F-test for variance, followed by Student's t-test (assuming equal or unequal variance depending on results of the F-test.

COc1ccc2c3c1O[C@H]1C[C@@H](O)C=C[C@@]31CCN(C)C2 [Galanthamine, galanthamine]
Mean mg melanin/100K cells (0.1 μM): 24.0^e mg melanin/100K cells | mg melanin/100K cells (0.1 μM): 21.2 mg melanin/100K cells and 26.7 mg melanin/100K cells and 23.9 mg melanin/100K cells | Mean mg melanin/100K cells (1 μM): 19.4^d mg melanin/100K cells | mg melanin/100K cells (1 μM): 21.0 mg melanin/100K cells and 18.6 mg melanin/100K cells and 18.5 mg melanin/100K cells | Mean mg melanin/100K cells (10 μM): 23.4^c mg melanin/100K cells | mg melanin/100K cells (10 μM): 23.3 mg melanin/100K cells and 23.7 mg melanin/100K cells and 23.0 mg melanin/100K cells

Source: patent US20100143277A1, “Skin Lightening Compositions with Acetylcholinesterase Inhibitors” (priority 2008, published 2010)
